Data taken from patent US8591954B2, “Phospholipid-based inhalation system” (Next Breath, LLC, priority 2006, dated 2013).
Entries after “also recorded” stand apart in the source; their conditions may differ.

Legend:
[1] = 25° C.; cited from earlier work
A549 cells = assay: Migration of latex beads on A549 cell surface after application of surfactant (microgrid / semi-automated counting); format: cell-based; conditions: 4.5 μm latex beads on A549 cells, CELLocate microgrid, surfactant applied directly; p<0.05, ANOVA; water control showed no migration
Description: A particularly preferred embodiment of the present invention comprises the identification of molecules to be used in the pMDI to push the medication deeper into the lungs. For this purpose an in vitro technique to visualize and monitor migration of latex beads placed on tissue cells after application of the appropriate surfactant may be used. […] K. Fumoto, […]. […] The microgrid coverslips can be used to monitor and quantify bead movement on cell surfaces reflecting similar characteristics to tracheal and pulmonary tissues. […] The movement of latex beads may then be monitored by counting the beads before adding the surfactant and then again after allowing the surfactant to spread for a period of time (for example 10 seconds). […] The effect of pMDI-delivered surfactant, e.g., PTC, Survanta®, on latex bead movement can be determined using the above cell model. […] Beads in 220 μm^2 virtual square grids along a 220×11,000 μm lane (50 grids in total), predefined using the automated stage controller coupled to the microscope, can be counted and quantified, before (initial) and after (final) application of surfactant. Bead migration along an extended lane can then be monitored. […]

Compound	dielectric constant [1]	migration of latex beads (bead count ratio Final:Initial) (A549 cells)
FC(C(F)(F)F)C(F)(F)F [HFA-227]	3.94	–
Phosphatidylcholine [PTC]	–	significant migration of latex beads; also recorded: significantly migrate
